# Reference: patent US7699995B2, “Water treatment method” (priority 2006, dated 2010)
# Marks after values point to notes of the source that are not given here.
# Experiments:
# [1] = tested on: Mycobacterium chelonae (ATCC 14472); test: High resolution MIC test, pure culture, 1/10x TSB; format: cell-based; conditions: M. chelonae, 24 hours at 37° C.
# Procedure: (§1) The lowest concentration of microbicide required to inhibit bacteria was determined by a high resolution MIC test. Varying amounts of each microbicide were added to media in a 96-well microtiter plate. The media used for the MIC tests was 10% Trypicase Soy Broth ( 1/10× TSB). […] serial dilutions were performed on a Biomek 2000 Workstation to obtain a range of closely spaced concentrations of microbicides. A cell suspension of stationary phase microorganisms, adjusted to provide 10^6 colony forming units (CFU)/mL in each well for bacteria was added to the microtiter plate. The microtiter plates were incubated for 24 hours at 30° C. for Mycobacterium immunogenum and 37° C. for Mycobacterium chelonae. The presence or absence of microbial growth was determined by measuring the turbidity in each well using a Thermomax microplate reader set at an absorbance of 650 nm. The lowest concentration of compound in which no growth was observed was considered the MIC value for the microbicide. The MIC value for each microbicide was determined from the average of four determinations for bacteria.
# (§2) Bacterial strains tested included Mycobacterium chelonae (ATCC 14472) and Mycobacterium immunogenum (ATCC 700505). Mycobacterial cultures were grown overnight at 30° C. (M. immunogenum) or 37° C. (M. chelonae), in a rotary shaking bath in Middlebrook […] with Middlebrook enrichment. A 1:20 dilution of the overnight culture was made into the appropriate test media and inoculated to give a final concentration of 10^6 to 10^7 CFU/ml.
# [2] = tested on: Mycobacterium immunogenum (ATCC 700505); test: High resolution MIC test, pure culture, 1/10x TSB; format: cell-based; conditions: M. immunogenum, 24 hours at 30° C.
# Procedure: as §1, §2
# [3] = tested on: Mycobacterium chelonae (ATCC 14472); test: MBC test, transfer from MIC plates to fresh media; format: cell-based; conditions: M. chelonae, no survivors after 2 days in fresh media
# Procedure: as §2
# (§3) MBC tests were conducted by transferring samples from the MIC test samples into fresh media and observing for growth of the culture. Growth was determined as above. In this test using Biomek 2000 Workstation, 10 μl samples taken from the 96-well MIC plates were placed in […] of fresh growth media to determine the number of surviving organisms for the same gradient of biocide concentrations. These plates were incubated and read in the same fashion as the MIC plates.
# [4] = tested on: Mycobacterium immunogenum (ATCC 700505); test: MBC test, transfer from MIC plates to fresh media; format: cell-based; conditions: M. immunogenum, no survivors after 2 days in fresh media
# Procedure: as §2, §3
# [5] = Stability in high pH metalworking fluid use dilutions (HPLC); format: physicochemical; conditions: for % CMIT Remaining (without MCC) / % CMIT Remaining (with MCC): 25° C.; for % CMIT Remaining (with MCC): MCC 300 ppm
# Procedure: Stability studies were conducted in three high pH metalworking fluid use dilutions to compare the persistence of MIT biocide versus CMIT biocide, tested alone and in combination with MCC). Aliquots of the use-diluted fluids were dosed with 17.5 ppm active CMIT/MIT and CMIT/MIT/MCC and stored at 25° C. Biocide concentrations were determined at time zero and weekly using high performance liquid chromatography (HPLC) analysis.
# [6] = Stability in buffered water at various pH and temperatures (HPLC); format: physicochemical
# Procedure: Biocides were added to buffer solutions and stability was tested at 22° and 50° C. using HPLC to measure biocide concentration at 0 time, 21 days, 43 days, and 88-90 days. Biocide stability was determined in the following buffer solutions: pH2, 0.01M HCl; pH6, 0.1M KH2PO4; pH8, 0.025M borate; pH10, 0.025M borate; pH12, 0.05M Na2HPO4. Biocide concentrations tested were 100 ppm MI, 200 ppm BIT, 44 ppm CMI.
# [7] = buffer, pH 9
# Procedure: pH 9 buffer containing 0.069 M boric acid, 0.017 M citric acid, 0.066 M sodium phosphate was prepared in distilled water. Biocide was dosed into the pH 9 buffer solution and stored at 70° C. in a heat block. The samples were examined for active ingredient concentration at the time points after 5 hours, and 1, 3, 7, 23, 30, 35 and 56 days. Initial biocide doses were 166 ppm MI, 199 ppm BIT and 150 ppm BNPD.
# The samples were evaluated for active ingredient concentration via High Pressure Liquid Chromatography. Samples were taken from the heating blocks and allowed to cool to room temperature for 30 minutes. The samples were then diluted 1:20 in deionized water by adding 9.5 ml of deionized water to 0.5 grams of the samples in a 25 ml glass sample vial. The samples were mixed for 15 seconds and transferred to HPLC sample vials for analysis.
# [8] = tested on: natural, resident populations of Mycobacterium; test: Eradication of mycobacteria in naturally contaminated in-use metalworking fluids; format: cell-based; conditions: for No. of Fluids with ≧99% Kill (2-log reduction): of six fluids, 48 hours
# Procedure: A comparative study was conducted evaluating six metalworking fluid biocides versus natural, resident populations of Mycobacterium from six in-use metalworking fluids. CMIT/MIT, CMIT/MIT/MCC, MIT, BIT, triazine, and PCMC microbicides were tested under controlled laboratory conditions to determine their efficacy at the maximum manufacturer's recommended dose rate (Table 2). The metalworking fluids were known to contain high levels of mycobacteria prior to dosing with biocides. Samples were then dosed with biocides, incubated with agitation at room temperature and viable mycobacteria counts determined after 48 hours by plating onto Middlebrook 7H10 medium, with Tween 80, glycerin, cyclohexamide, chloramphenicol, and gentamycin to suppress the growth of unwanted microorganisms.
# The six metalworking fluid samples containing mycobacteria study from Example 7, were also tested using the same biocides with dosing at 50% of the maximum manufacturer's recommended rate (Table 2) under the same conditions. These metalworking fluids were known to contain high levels of mycobacteria prior to dosing with biocides. Samples were then dosed with biocides, incubated with agitation at room temperature and viable mycobacteria counts determined after 48 hours by plating onto Middlebrook 7H10 medium, with Tween 80, glycerin, cyclohexamide, chloramphenicol, and gentamycin to suppress the growth of unwanted microorganisms.
# [9] = Synthetic Fluid 2 (pH 9.4), 1 wk
# [10] = Synthetic Fluid 2 (pH 9.4), 3 wk
# [11] = Fluid 1, 48 hours, 50% of recommended maximum dose
# [12] = Fluid 1, 48 hours, 100% of recommended maximum dose
# [13] = Fluid 2, 48 hours, 50% of recommended maximum dose
# [14] = Fluid 2, 48 hours, 100% of recommended maximum dose
# [15] = Fluid 3, 48 hours, 50% of recommended maximum dose
# [16] = Fluid 3, 48 hours, 100% of recommended maximum dose
# [17] = Fluid 4, 48 hours, 50% of recommended maximum dose
# [18] = Fluid 4, 48 hours, 100% of recommended maximum dose
# [19] = Fluid 5, 48 hours, 50% of recommended maximum dose
# [20] = Fluid 5, 48 hours, 100% of recommended maximum dose
# [21] = Fluid 6, 48 hours, 50% of recommended maximum dose
# [22] = Fluid 6, 48 hours, 100% of recommended maximum dose
compound,measurement,setting,value
C1COCN1 [Oxazolidine],Minimum Inhibitory Concentration,[1],42 ppm active
same,Minimum Inhibitory Concentration,[2],38 ppm active
same,Minimum Biocidal Concentration,[3],34 ppm active
same,Minimum Biocidal Concentration,[4],836 ppm active
"Cn1sc(Cl)cc1=O [CMI, 5-chloro-2-methyl-4-isothiazolin-3-one]",% CMIT Remaining (without MCC),"[5]; Soluble Fluid 1 (pH 9.2), 2 wk",28%
same,% CMIT Remaining (with MCC),"[5]; Soluble Fluid 1 (pH 9.2), 2 wk",38%
same,% CMIT Remaining (without MCC),"[5]; Soluble Fluid 1 (pH 9.2), 4 wk",10%
same,% CMIT Remaining (with MCC),"[5]; Soluble Fluid 1 (pH 9.2), 4 wk",18%
same,% CMIT Remaining (without MCC),"[5]; Soluble Fluid 3 (pH 9.3), 2 wk",25%
same,% CMIT Remaining (with MCC),"[5]; Soluble Fluid 3 (pH 9.3), 2 wk",35%
same,% CMIT Remaining (without MCC),"[5]; Soluble Fluid 3 (pH 9.3), 4 wk",0%
same,% CMIT Remaining (with MCC),"[5]; Soluble Fluid 3 (pH 9.3), 4 wk",16%
same,% CMIT Remaining (without MCC),[5]; [9],13%
same,% CMIT Remaining (with MCC),[5]; [9],42%
same,% CMIT Remaining (without MCC),[5]; [10],0* %
same,% CMIT Remaining (with MCC),[5]; [10],0%
same,"biocide remaining, CMIT with MCC","[5]; after 3-4 weeks in the three fluids, 300 ppm MCC",≤ 16%
same,"biocide remaining, CMIT alone","[5]; after 3-4 weeks in the three fluids, without MCC",none remaining
same,Percent Remaining at: pH 2,"[6]; 22° C., day 0",100%
same,Percent Remaining at: pH 6,"[6]; 22° C., day 0",100%
same,Percent Remaining at: pH 8,"[6]; 22° C., day 0",100%
same,Percent Remaining at: pH 10,"[6]; 22° C., day 0",100%
same,Percent Remaining at: pH 12,"[6]; 22° C., day 0",100%
same,Percent Remaining at: pH 2,"[6]; 22° C., day 21",100%
same,Percent Remaining at: pH 6,"[6]; 22° C., day 21",100%
same,Percent Remaining at: pH 8,"[6]; 22° C., day 21",100%
same,Percent Remaining at: pH 10,"[6]; 22° C., day 21",0%
same,Percent Remaining at: pH 12,"[6]; 22° C., day 21",0%
same,Percent Remaining at: pH 2,"[6]; 22° C., day 43",100%
same,Percent Remaining at: pH 6,"[6]; 22° C., day 43",100%
same,Percent Remaining at: pH 8,"[6]; 22° C., day 43",91%
same,Percent Remaining at: pH 10,"[6]; 22° C., day 43",0%
same,Percent Remaining at: pH 12,"[6]; 22° C., day 43",0%
same,Percent Remaining at: pH 2,"[6]; 22° C., day 88",100%
same,Percent Remaining at: pH 6,"[6]; 22° C., day 88",100%
same,Percent Remaining at: pH 8,"[6]; 22° C., day 88",95%
same,Percent Remaining at: pH 10,"[6]; 22° C., day 88",0%
same,Percent Remaining at: pH 12,"[6]; 22° C., day 88",0%
same,Percent Remaining at: pH 2,"[6]; 50° C., day 0",100%
same,Percent Remaining at: pH 6,"[6]; 50° C., day 0",100%
same,Percent Remaining at: pH 8,"[6]; 50° C., day 0",100%
same,Percent Remaining at: pH 10,"[6]; 50° C., day 0",100%
same,Percent Remaining at: pH 12,"[6]; 50° C., day 0",100%
same,Percent Remaining at: pH 2,"[6]; 50° C., day 21",100%
same,Percent Remaining at: pH 6,"[6]; 50° C., day 21",100%
same,Percent Remaining at: pH 8,"[6]; 50° C., day 21",15%
same,Percent Remaining at: pH 10,"[6]; 50° C., day 21",0%
same,Percent Remaining at: pH 12,"[6]; 50° C., day 21",0%
same,Percent Remaining at: pH 2,"[6]; 50° C., day 43",93%
same,Percent Remaining at: pH 6,"[6]; 50° C., day 43",65%
same,Percent Remaining at: pH 8,"[6]; 50° C., day 43",0%
same,Percent Remaining at: pH 10,"[6]; 50° C., day 43",0%
same,Percent Remaining at: pH 12,"[6]; 50° C., day 43",0%
same,Percent Remaining at: pH 2,"[6]; 50° C., day 88",100%
same,Percent Remaining at: pH 6,"[6]; 50° C., day 88",30%
same,Percent Remaining at: pH 8,"[6]; 50° C., day 88",0%
same,Percent Remaining at: pH 10,"[6]; 50° C., day 88",0%
same,Percent Remaining at: pH 12,"[6]; 50° C., day 88",0%
"O=[N+]([O-])C(Br)(CO)CO [BNPD, 2-bromo-2-nitro-propane-1,3-diol]",Percent Remaining after: 0,[7]; 0 h,100%
same,Percent Remaining after: 5 hr,[7]; 5 h,0%
same,Percent Remaining after: 1 day,[7]; 24 h,0%
OCCN1CN(CCO)CN(CCO)C1 [Triazine],Log Reduction in Mycobacterial Counts versus Control (no biocide),[8]; [11],0.00 log
same,Log Reduction in Mycobacterial Counts versus Control (no biocide),[8]; [12],0.00 log
same,Log Reduction in Mycobacterial Counts versus Control (no biocide),[8]; [13],0.00 log
same,Log Reduction in Mycobacterial Counts versus Control (no biocide),[8]; [14],0.12 log
same,Log Reduction in Mycobacterial Counts versus Control (no biocide),[8]; [15],0.00 log
same,Log Reduction in Mycobacterial Counts versus Control (no biocide),[8]; [16],0.00 log
same,Log Reduction in Mycobacterial Counts versus Control (no biocide),[8]; [17],0.00 log
same,Log Reduction in Mycobacterial Counts versus Control (no biocide),[8]; [18],0.00 log
same,Log Reduction in Mycobacterial Counts versus Control (no biocide),[8]; [19],0.06 log
same,Log Reduction in Mycobacterial Counts versus Control (no biocide),[8]; [20],0.00 log
same,Log Reduction in Mycobacterial Counts versus Control (no biocide),[8]; [21],0.00 log
same,Log Reduction in Mycobacterial Counts versus Control (no biocide),[8]; [22],0.00 log
same,No. of Fluids with ≧99% Kill (2-log reduction),[8]; 50% of recommended maximum dose,0
same,No. of Fluids with ≧99% Kill (2-log reduction),[8]; 100% of recommended maximum dose,0
same,Minimum Inhibitory Concentration,[1],43 ppm active
same,Minimum Inhibitory Concentration,[2],39 ppm active
same,Minimum Biocidal Concentration,[3],314 ppm active
same,Minimum Biocidal Concentration,[4],314 ppm active
Cc1cc(O)ccc1Cl [PCMC],Log Reduction in Mycobacterial Counts versus Control (no biocide),[8]; [11],0.00 log
same,Log Reduction in Mycobacterial Counts versus Control (no biocide),[8]; [12],5.88 log
same,Log Reduction in Mycobacterial Counts versus Control (no biocide),[8]; [13],1.00 log
same,Log Reduction in Mycobacterial Counts versus Control (no biocide),[8]; [14],5.00 log
same,Log Reduction in Mycobacterial Counts versus Control (no biocide),[8]; [15],0.00 log
same,Log Reduction in Mycobacterial Counts versus Control (no biocide),[8]; [16],1.00 log
same,Log Reduction in Mycobacterial Counts versus Control (no biocide),[8]; [17],5.24 log
same,Log Reduction in Mycobacterial Counts versus Control (no biocide),[8]; [18],5.24 log
same,Log Reduction in Mycobacterial Counts versus Control (no biocide),[8]; [19],0.51 log
same,Log Reduction in Mycobacterial Counts versus Control (no biocide),[8]; [20],0.90 log
same,Log Reduction in Mycobacterial Counts versus Control (no biocide),[8]; [21],3.88 log
same,Log Reduction in Mycobacterial Counts versus Control (no biocide),[8]; [22],3.88 log
same,Minimum Inhibitory Concentration,[1],20 ppm active
same,Minimum Inhibitory Concentration,[2],35 ppm active
same,Minimum Biocidal Concentration,[3],60 ppm active
same,Minimum Biocidal Concentration,[4],75 ppm active
